Reference: the supplement of paper PMC10307832

How the values were obtained:
Test in all cases: relative viability (nuclei count vs DMSO), 5 days (fraction); higher = more cells survive
[1] = compound: O=C(/C=C/c1ccccc1)NC(NC(=S)Nc1cccc2cccnc12)C(Cl)(Cl)Cl [Salubrinal] + CC1(C)CCC(c2ccc(Cl)cc2)=C(CN2CCN(c3ccc(C(=O)NS(=O)(=O)c4ccc(N[C@H](CCN5CCOCC5)CSc5ccccc5)c(S(=O)(=O)C(F)(F)F)c4)cc3)CC2)C1 [Navitoclax] (partner 0.5 µM)
Method in brief: (§1)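 For relative viability, nuclei counts in treated wells were divided by those in vehicle wells. Lung cancer cell lines had been pin-tool dosed in 1536-well plates the day after seeding and cultured for 5 days, then fixed and stained in one step (final 0.05% Triton X-100, 1% formaldehyde, 1 ug/ml Hoechst) and imaged at 4×. Doses were one drug alone or a fixed anchor-drug dose plus five library-drug doses (not always all listed) in √10 steps, and values are duplicate-plate medians.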

[2] = compound: O=C(/C=C/c1ccccc1)NC(NC(=S)Nc1cccc2cccnc12)C(Cl)(Cl)Cl [Salubrinal] + CS(=O)(=O)CCNCc1ccc(-c2ccc3ncnc(Nc4ccc(OCc5cccc(F)c5)c(Cl)c4)c3c2)o1 [Lapatinib] (partner 2 µM)
Method in brief: as §1

[3] = compound: Cc1ccc2nc(NCCN)c3ncc(C)n3c2c1 + O=C(c1cc(Cc2n[nH]c(=O)c3ccccc23)ccc1F)N1CCN(C(=O)C2CC2)CC1 [Olaparib] (partner 8 µM)
Method in brief: as §1

[4] = compound: O=C(/C=C/c1ccccc1)NC(NC(=S)Nc1cccc2cccnc12)C(Cl)(Cl)Cl [Salubrinal] + CC(=O)c1c(C)c2cnc(Nc3ccc(N4CCNCC4)cn3)nc2n(C2CCCC2)c1=O [Palbociclib] (partner 0.5 µM)
Method in brief: as §1

UMC-11
relative viability ([1]; first compound 0.08 µM): 0.281
relative viability ([1]; first compound 0.253 µM): 0.301
relative viability ([1]; first compound 0.8 µM): 0.329
relative viability ([1]; first compound 2.53 µM): 0.318
relative viability ([1]; first compound 8 µM): 0.305
relative viability ([2]; first compound 0.08 µM): 0.931
relative viability ([2]; first compound 0.253 µM): 0.918
relative viability ([2]; first compound 0.8 µM): 1.48
relative viability ([2]; first compound 2.53 µM): 1.11
relative viability ([2]; first compound 8 µM): 1.16
relative viability ([3]; first compound 0.04 µM): 0.376
relative viability ([3]; first compound 0.1265 µM): 0.355
relative viability ([3]; first compound 0.4 µM): 0.388
relative viability ([3]; first compound 1.265 µM): 0.35
relative viability ([3]; first compound 4 µM): 0.301
relative viability ([4]; first compound 0.08 µM): 0.304
relative viability ([4]; first compound 0.253 µM): 0.344
relative viability ([4]; first compound 0.8 µM): 0.349
relative viability ([4]; first compound 2.53 µM): 0.313
relative viability ([4]; first compound 8 µM): 0.299
